Laboratory results from ChEMBL document CHEMBL1159283, “Further brominated bis- and tris-indole alkaloids from the deep-water New Caledonian marine sponge Orina Sp” (J Nat Prod, 1995).
pIC50: −log10 of the molar value. Active and inactive are the calls of the source. No cut-off for these calls is given here.

Key:
[1] = biological target: T1, B2 bradykinin receptor (Homo sapiens) (UniProt P30411); experiment: Displacement of [3H]bradykinin from bradykinin B2 receptor expressed in baculovirus-infected SF21 cells at 5 ug/mL
T1 sequence (whole entry): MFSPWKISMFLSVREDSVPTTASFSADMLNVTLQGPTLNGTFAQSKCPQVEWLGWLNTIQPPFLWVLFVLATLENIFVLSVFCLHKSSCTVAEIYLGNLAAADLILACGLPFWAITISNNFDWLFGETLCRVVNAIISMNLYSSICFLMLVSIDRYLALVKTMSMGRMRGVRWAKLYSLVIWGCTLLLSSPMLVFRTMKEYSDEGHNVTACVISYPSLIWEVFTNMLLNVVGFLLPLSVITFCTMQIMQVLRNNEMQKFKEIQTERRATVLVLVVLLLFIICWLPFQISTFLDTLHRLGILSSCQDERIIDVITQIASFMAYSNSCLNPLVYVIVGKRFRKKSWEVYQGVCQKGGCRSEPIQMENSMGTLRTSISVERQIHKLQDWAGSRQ

[2] = biological target: T2, Neuromedin-K receptor (Homo sapiens) (UniProt P29371); experiment: Binding affinity to NK3 tachykinin receptor at 5 ug/mL by senktide binding assay
T2 sequence (whole entry): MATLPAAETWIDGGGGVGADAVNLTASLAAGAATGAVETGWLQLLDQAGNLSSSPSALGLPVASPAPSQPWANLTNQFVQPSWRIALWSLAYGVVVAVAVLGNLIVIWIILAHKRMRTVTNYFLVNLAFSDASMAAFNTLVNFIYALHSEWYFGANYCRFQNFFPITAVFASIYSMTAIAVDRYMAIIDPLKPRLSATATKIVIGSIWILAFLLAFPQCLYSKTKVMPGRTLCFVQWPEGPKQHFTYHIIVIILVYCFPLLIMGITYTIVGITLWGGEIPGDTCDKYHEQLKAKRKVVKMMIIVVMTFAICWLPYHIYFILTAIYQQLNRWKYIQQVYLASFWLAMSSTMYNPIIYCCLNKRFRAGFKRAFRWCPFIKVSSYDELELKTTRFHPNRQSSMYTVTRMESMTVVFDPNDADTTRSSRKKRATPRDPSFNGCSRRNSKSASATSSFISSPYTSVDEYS

[3] = Binding affinity to quisqualate site of glutamate receptor at 5 ug/mL by AMPA binding assay
Rattus norvegicus = organism: Rattus norvegicus; experiment: Displacement of [3H]NPY from neuropeptide Y receptor in rat cerebral cortices membrane at 5 ug/mL; assay type: cell membranes
[4] = Antagonist activity at serotonin receptor in guinea pig ileum assessed as inhibition of serotonin-induced contraction; assay type: functional, tissue-based; details: Cavia porcellus
[5] = biological target: Somatostatin receptor (Rattus norvegicus) (UniProt Q7TT86); experiment: Displacement of [125I]somatostatin from somatostatin receptor in rat cerebral cortices membrane at 5 ug/mL; assay type: cell membranes
Sequence of Somatostatin receptor (Rattus norvegicus) (Q7TT86 as listed by the source): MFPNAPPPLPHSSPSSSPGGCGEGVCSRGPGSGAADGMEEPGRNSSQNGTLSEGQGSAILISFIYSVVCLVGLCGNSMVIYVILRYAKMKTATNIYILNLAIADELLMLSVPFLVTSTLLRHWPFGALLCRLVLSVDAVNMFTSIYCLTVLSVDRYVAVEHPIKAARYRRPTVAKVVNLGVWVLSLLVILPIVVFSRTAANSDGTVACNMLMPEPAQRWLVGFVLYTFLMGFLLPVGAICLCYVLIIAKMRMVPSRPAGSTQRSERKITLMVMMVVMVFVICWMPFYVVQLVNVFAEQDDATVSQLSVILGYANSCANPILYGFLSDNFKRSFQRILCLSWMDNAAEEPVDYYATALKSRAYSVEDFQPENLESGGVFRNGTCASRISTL

BOWES = experiment: Binding affinity to galanin receptor in human BOWES cells at 5 ug/mL; assay type: cell-based
[6] = Binding affinity to VIP receptor at 5 ug/mL
[7] = biological target: Calcitonin gene-related peptide type 1 receptor (Homo sapiens) (UniProt Q16602); experiment: Binding affinity to CGRP receptor at 5 ug/mL
Sequence of Calcitonin gene-related peptide type 1 receptor (Homo sapiens) (Q16602 whole entry): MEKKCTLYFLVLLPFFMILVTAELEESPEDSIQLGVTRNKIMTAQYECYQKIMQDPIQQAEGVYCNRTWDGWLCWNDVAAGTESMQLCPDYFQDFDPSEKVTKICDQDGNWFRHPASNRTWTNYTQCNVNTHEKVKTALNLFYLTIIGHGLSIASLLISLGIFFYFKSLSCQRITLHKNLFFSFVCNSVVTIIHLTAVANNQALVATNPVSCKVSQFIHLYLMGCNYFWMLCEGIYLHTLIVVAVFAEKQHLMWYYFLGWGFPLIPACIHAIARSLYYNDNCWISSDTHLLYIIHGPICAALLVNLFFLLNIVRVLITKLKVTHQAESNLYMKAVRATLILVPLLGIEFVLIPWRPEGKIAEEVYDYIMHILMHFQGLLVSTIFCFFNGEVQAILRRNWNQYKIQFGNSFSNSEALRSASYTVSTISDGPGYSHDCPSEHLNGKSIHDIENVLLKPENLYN

[8] = Binding affinity to regulatory site of NMDA receptor at 5 ug/mL by glycine binding assay
[9] = Binding affinity to neurotensin receptor at 5 ug/mL

NCCc1c(C(CN)c2c[nH]c3cc(Br)ccc23)[nH]c2cc(Br)ccc12 (racemic)
inhibition [1]: 89%
Activity [2]: inactive
Activity [3]: inactive
inhibition (Rattus norvegicus): 67%
pIC50 [4]: 5.00
Activity [5]: 91%
Activity (BOWES): inactive
Activity [6]: inactive
Activity [7]: inactive
Activity [8]: inactive
Activity [9]: inactive

NCCc1c(C(CN)c2c[nH]c3cc(Br)ccc23)[nH]c2ccc(O)c(C(CN)c3c[nH]c4cc(Br)ccc34)c12 (racemic)
pIC50 [4]: 5.70

NCCc1c(C(CN)c2c[nH]c3cc(Br)ccc23)[nH]c2ccc(O)cc12 (racemic)
inhibition [1]: 63%
Activity [2]: inactive
Activity [3]: inactive
inhibition (Rattus norvegicus): 63%
pIC50 [4]: 4.30
Activity [5]: 87%
Activity (BOWES): inactive
Activity [6]: inactive
Activity [7]: inactive
Activity [8]: inactive
Activity [9]: inactive

NCCc1c[nH]c2ccc(O)c(C(CN)c3c[nH]c4cc(Br)ccc34)c12 (racemic)
pIC50 [4]: 4.00

NCCc1c(C(CN)c2c[nH]c3cc(Br)ccc23)[nH]c2cc(C(CN)c3c[nH]c4cc(Br)ccc34)c(O)cc12 (racemic)
Activity [2]: inactive
Activity [3]: inactive
Activity [5]: Active
Activity (BOWES): inactive
Activity [6]: inactive
Activity [7]: inactive
Activity [8]: inactive
Activity [9]: inactive

NCCc1c(C(CN)c2c[nH]c3cc(Br)ccc23)[nH]c2cc(C(CN)c3c[nH]c4cc(Br)ccc34)c(O)cc12 (stereo in doubt; form 1)
inhibition [1]: 100%
inhibition (Rattus norvegicus): 90%

NCCc1c(C(CN)c2c[nH]c3cc(Br)ccc23)[nH]c2cc(C(CN)c3c[nH]c4cc(Br)ccc34)c(O)cc12 (stereo in doubt; form 2)
inhibition [1]: 93%
inhibition (Rattus norvegicus): 62%
